From US20240116985A1, “STAPLED PEPTIDES AND METHODS THEREOF” (priority 2020, published 2024)
Values after ≈ are worked out from the molar mass of the structure shown. Where two headings read alike, the source gives them in different places.

Tests used:
[1] = molecular target: T1, full-length beta-Catenin (Uniprot ID P35222) (Homo sapiens, UniProt P35222); assay: Fluorescence polarization IC50 (beta-catenin / 5FAM-TCF4 10-53 competition); assay type: binding; conditions: fluorescence polarization
T1 construct: 10 nM full-length beta-Catenin (Uniprot ID P35222)
T1 sequence (P35222 1-781): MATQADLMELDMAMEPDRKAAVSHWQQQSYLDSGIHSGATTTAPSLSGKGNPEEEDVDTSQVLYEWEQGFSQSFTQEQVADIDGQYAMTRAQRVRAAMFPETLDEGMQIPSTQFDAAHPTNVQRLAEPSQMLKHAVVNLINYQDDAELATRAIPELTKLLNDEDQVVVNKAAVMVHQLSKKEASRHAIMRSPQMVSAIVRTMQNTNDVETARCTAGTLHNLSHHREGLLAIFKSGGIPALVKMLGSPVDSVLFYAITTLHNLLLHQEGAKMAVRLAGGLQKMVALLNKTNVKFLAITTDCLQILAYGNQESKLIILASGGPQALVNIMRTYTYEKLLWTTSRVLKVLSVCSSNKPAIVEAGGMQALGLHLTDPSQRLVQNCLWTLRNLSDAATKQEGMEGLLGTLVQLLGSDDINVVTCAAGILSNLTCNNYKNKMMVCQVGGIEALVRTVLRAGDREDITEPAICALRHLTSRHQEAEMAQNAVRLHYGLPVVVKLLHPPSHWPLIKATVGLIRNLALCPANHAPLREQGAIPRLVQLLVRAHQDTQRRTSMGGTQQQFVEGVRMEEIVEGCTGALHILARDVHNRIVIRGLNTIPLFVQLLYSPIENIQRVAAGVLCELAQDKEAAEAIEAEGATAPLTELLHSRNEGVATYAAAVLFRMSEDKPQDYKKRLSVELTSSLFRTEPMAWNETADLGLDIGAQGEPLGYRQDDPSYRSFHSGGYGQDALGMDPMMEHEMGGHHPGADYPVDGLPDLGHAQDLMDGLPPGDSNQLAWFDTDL

Solubility in PBS = assay type: physicochemical
In short: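 HPLC quantitation of peptide remaining in the PBS supernatant after ultracentrifugation, referenced to a 50 μM solution in DMSO.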

[2] = beta-catenin, read-out: FP EC50

Compound | IC50 ([1]; read-out: beta-Catenin FP IC50) [nM] | Solubility (Solubility in PBS) [µM] | Solubility (Solubility in PBS; Solubility (uM)) [µM] | IC50 [1, 2] [nM]
CC(=O)N1CCC[C@]12CC=CCCCC1(CCCC=CCCCOC(=O)N3CC[C@@](C(=O)N[C@@H](Cc4ccccc4Cl)C(=O)N[C@@H](Cc4csc5ccccc45)C(=O)N[C@@H](CCC(N)=O)C(N)=O)(C3)NC(=O)[C@H](CC(C)C)NC(=O)[C@H](Cc3ccccc3)NC(=O)[C@H](C)NC(=O)[C@H](C)NC(=O)[C@H]([C@@H](C)O)NC(=O)[C@H](CC(=O)O)NC1=O)NC(=O)[C@H](CC(C)(C)C)NC(=O)[C@H](CC(=O)O)NC2=O (stereo partly drawn) [I-1169, Ac-PL3-Asp-Npg-B5-Asp-Thr-Ala-Ala-Phe-Leu-PyrS2-2C1F-BztA-Gln-NH2] | 159 | 10 (≈ 19.3 µg/mL) | – | –
CC(=O)N1CCC[C@]12CC=CCCCC1(CCCC=CCCCOC(=O)N3CC[C@@](C(=O)N[C@@H](Cc4ccccc4)C(=O)N[C@@H](Cc4csc5ccccc45)C(=O)N[C@H](C(N)=O)[C@@H](C)O)(C3)NC(=O)[C@H](CC(C)C)NC(=O)[C@H](Cc3ccccc3)NC(=O)[C@H](C)NC(=O)[C@H](CCCCNC(C)C)NC(=O)[C@H]([C@@H](C)O)NC(=O)[C@H](CC(N)=O)NC1=O)NC(=O)[C@H](C)NC(=O)[C@H](CC(=O)O)NC2=O (stereo partly drawn) [I-1378, Ac-PL3-Asp-Ala-B5-Asn-Thr-iPrLys-Ala-Phe-Leu-PyrS2-Phe-BztA-Thr-NH2] | 6170 | 10 (≈ 19.1 µg/mL) | – | –
CC(=O)N1CCC[C@]12CC=CCCCC1(CCCC=CCCCOC(=O)N3CC[C@@](C(=O)N[C@@H](Cc4ccsc4)C(=O)N[C@@H](Cc4csc5ccccc45)C(=O)N[C@@H](CCC(N)=O)C(N)=O)(C3)NC(=O)[C@H](CC(N)=O)NC(=O)[C@H](Cc3ccccc3)NC(=O)[C@H](C)NC(=O)[C@H](C)NC(=O)[C@H](CC(=O)O)NC(=O)[C@H](CCO)NC1=O)NC(=O)[C@H](CC(C)(C)C)NC(=O)[C@H](CC(=O)O)NC2=O (stereo partly drawn) [I-1214, Ac-PL3-Asp-Npg-B5-Hse-Asp-Ala-Ala-Phe-Asn-PyrS2-3Thi-BztA-Gln-NH2] | 116 | 50 (≈ 95.2 µg/mL) | – | –
CC(=O)N1CCC[C@]12CC=CCCCC1(CCCC=CCCCCCC[C@@](C)(C(=O)N[C@@H](Cc3ccsc3)C(=O)N[C@@H](Cc3csc4ccccc34)C(=O)N[C@@H](Cc3c[nH]nn3)C(N)=O)NC(=O)[C@H](CC(C)C)NC(=O)[C@H](Cc3ccccc3)NC(=O)[C@H](C)NC(=O)[C@H](C)NC(=O)[C@H](CC(=O)O)NC(=O)[C@H](CC(=O)O)NC1=O)NC(=O)[C@H](CC(C)(C)C)NC(=O)[C@H](CC(=O)O)NC2=O (stereo partly drawn) [I-1193, Ac-PL3-Asp-Npg-B5-Asp-Asp-Ala-Ala-Phe-Leu-S8-3Thi-BztA-4TriA-NH2] | 78.5 | 10 (≈ 18.8 µg/mL) | – | –
CC(C)C[C@@H]1NC(=O)[C@H](Cc2ccccc2)NC(=O)[C@H](C)NC(=O)[C@H](C)NC(=O)[C@H](CC(=O)O)NC(=O)[C@H](CC(=O)O)NC(=O)C2(CCCC=CCCCOC(=O)N3CC[C@@](C(=O)N[C@@H](Cc4ccccc4)C(=O)N[C@@H](Cc4csc5ccccc45)C(=O)N[C@@H](CCC(N)=O)C(N)=O)(C3)NC1=O)CCCC=CC[C@]1(CCCN1C(=O)CCCN(C)C)C(=O)N[C@@H](CC(=O)O)C(=O)N[C@@H](CC(C)(C)C)C(=O)N2 (stereo partly drawn) [I-1359, NdiMeButC-PL3-Asp-Npg-B5-Asp-Asp-Ala-Ala-Phe-Leu-PyrS2-Phe-BztA-Gln-NH2] | 88 | 34 (≈ 67.4 µg/mL) | – | 88
CC(=O)N1CCC[C@]12CC=CCCCC1(CCCC=CCCCOC(=O)N3CC[C@@](C(=O)N[C@@H](Cc4ccccc4Cl)C(=O)N[C@@H](Cc4csc5ccccc45)C(=O)N[C@@H](CCC(N)=O)C(N)=O)(C3)NC(=O)[C@H](CC(C)C)NC(=O)[C@H](Cc3ccccc3)NC(=O)[C@H](C)NC(=O)[C@H](C)NC(=O)[C@H]([C@@H](C)O)NC(=O)[C@H](CC(=O)O)NC1=O)NC(=O)[C@H](CC1CCCCC1)NC(=O)[C@H](CC(=O)O)NC2=O (stereo partly drawn) [I-1176, Ac-PL3-Asp-Cha-B5-Asp-Thr-Ala-Ala-Phe-Leu-PyrS2-2C1F-BztA-Gln-NH2] | 169 | 10 (≈ 19.6 µg/mL) | – | –
CC(=O)N1CCC[C@]12CC=CCCCC1(CCCC=CCCCOC(=O)N3CC[C@@](C(=O)N[C@@H](Cc4ccsc4)C(=O)N[C@@H](Cc4csc5ccccc45)C(=O)N[C@@H](CCC(N)=O)C(N)=O)(C3)NC(=O)[C@H](CC(N)=O)NC(=O)[C@H](Cc3ccccc3)NC(=O)[C@H](C)NC(=O)[C@H](C)NC(=O)[C@H](CC(=O)O)NC(=O)[C@H](CO)NC1=O)NC(=O)[C@H](CC(C)(C)C)NC(=O)[C@H](CC(=O)O)NC2=O (stereo partly drawn) [I-1208, Ac-PL3-Asp-Npg-B5-Ser-Asp-Ala-Ala-Phe-Asn-PyrS2-3Thi-BztA-Gln-NH2] | 349 | – | 44 (≈ 83.2 µg/mL) | –
CC(=O)N1CCC[C@]12CC=CCCCC1(CCCC=CCCCOC(=O)N3CC[C@@](C(=O)N[C@@H](Cc4ccsc4)C(=O)N[C@@H](Cc4csc5ccccc45)C(=O)N[C@@H](CCC(N)=O)C(N)=O)(C3)NC(=O)[C@H](CC(C)C)NC(=O)[C@H](Cc3ccccc3)NC(=O)[C@H](C)NC(=O)[C@H](C)NC(=O)[C@H](CC(=O)O)NC(=O)[C@H](CCO)NC1=O)NC(=O)[C@H](CC(C)(C)C)NC(=O)[C@H](CC(=O)O)NC2=O (stereo partly drawn) [I-1215, Ac-PL3-Asp-Npg-B5-Hse-Asp-Ala-Ala-Phe-Leu-PyrS2-3Thi-BztA-Gln-NH2] | 216 | 10 (≈ 19 µg/mL) | – | –

Further compounds by falling IC50 ([1]; read-out: beta-Catenin FP IC50), results first:

IC50 ([1]; read-out: beta-Catenin FP IC50) [nM] | Solubility (Solubility in PBS) [µM] | Solubility (Solubility in PBS; Solubility (uM)) [µM] | IC50 [1, 2] [nM] | Compound
87 | 31 (≈ 60.3 µg/mL) | – | 87 | CC(=O)N1CCC[C@]12CC=CCCCC1(CCCC=CCCCOC(=O)N3CC[C@@](C(=O)N[C@@H](Cc4ccsc4)C(=O)N[C@@H](Cc4csc5ccccc45)C(=O)N[C@@H](CCC(N)=O)C(N)=O)(C3)NC(=O)[C@H](CC(C)C)NC(=O)[C@H](Cc3ccccc3)NC(=O)C(C)(C)NC(=O)C(C)(C)NC(=O)[C@H](CC(=O)O)NC(=O)[C@H](CC(=O)O)NC1=O)NC(=O)[C@H](CC(C)(C)C)NC(=O)[C@H](CC(=O)O)NC2=O (stereo partly drawn) [I-1180, Ac-PL3-Asp-Npg-B5-Asp-Asp-Aib-Aib-Phe-Leu-PyrS2-3Thi-BztA-Gln-NH2]
85 | 10 (≈ 18.8 µg/mL) | – | – | CC(=O)N1CCC[C@]12CC=CCCCC1(CCCC=CCCCCCC[C@@](C)(C(=O)N[C@@H](Cc3ccccc3Cl)C(=O)N[C@@H](Cc3csc4ccccc34)C(=O)N[C@@H](CCO)C(N)=O)NC(=O)[C@H](CC(C)C)NC(=O)[C@H](Cc3ccccc3)NC(=O)[C@H](C)NC(=O)[C@H](C)NC(=O)[C@H](CC(=O)O)NC(=O)[C@H](CC(=O)O)NC1=O)NC(=O)[C@H](CC(C)(C)C)NC(=O)[C@H](CC(=O)O)NC2=O (stereo partly drawn) [I-1196, Ac-PL3-Asp-Npg-B5-Asp-Asp-Ala-Ala-Phe-Leu-S8-2C1F-BztA-Hse-NH2]
70 | 10 (≈ 20.3 µg/mL) | – | – | CC(=O)N1CCC[C@]12CC=CCCCC1(CCCC=CCCCOC(=O)N3CC[C@@](C(=O)N[C@@H](Cc4ccccc4Cl)C(=O)N[C@@H](Cc4csc5ccccc45)C(=O)N[C@@H](CCC(N)=O)C(N)=O)(C3)NC(=O)[C@H](CO)NC(=O)[C@H](Cc3ccccc3)NC(=O)[C@H](CC(C)C)NC(=O)[C@H](CC(C)C)NC(=O)[C@H](CC(=O)O)NC(=O)[C@H](CC(=O)O)NC1=O)NC(=O)[C@H](CC1CCCCC1)NC(=O)[C@H](CC(=O)O)NC2=O (stereo partly drawn) [I-1149, Ac-PL3-Asp-Cha-B5-Asp-Asp-Leu-Leu-Phe-Ser-PyrS2-2C1F-BztA-Gln-NH2]
58.5 | 10 (≈ 18.3 µg/mL) | – | – | CC(=O)N1CCC[C@]12CC=CCCCC1(CCCC=CCCCCCC[C@@](C)(C(=O)N[C@@H](Cc3ccsc3)C(=O)N[C@@H](Cc3csc4ccccc34)C(=O)N[C@@H](CO)C(N)=O)NC(=O)[C@H](CC(C)C)NC(=O)[C@H](Cc3ccccc3)NC(=O)[C@H](C)NC(=O)[C@H](C)NC(=O)[C@H](CC(=O)O)NC(=O)[C@H](CC(=O)O)NC1=O)NC(=O)[C@H](CC(C)(C)C)NC(=O)[C@H](CC(=O)O)NC2=O (stereo partly drawn) [I-1190, Ac-PL3-Asp-Npg-B5-Asp-Asp-Ala-Ala-Phe-Leu-S8-3Thi-BztA-Ser-NH2]
28 | – | 32 (≈ 61.6 µg/mL) | – | CC(=O)N1CCC[C@]12CC=CCCCC1(CCCC=CCCCOC(=O)N3CC[C@@](C(=O)N[C@@H](Cc4ccccc4Cl)C(=O)N[C@@H](Cc4csc5ccccc45)C(=O)N[C@@H](CC(C)C)C(N)=O)(C3)NC(=O)[C@H](CO)NC(=O)[C@H](Cc3ccccc3)NC(=O)[C@H](C)NC(=O)[C@H](C)NC(=O)[C@H](CC(=O)O)NC(=O)[C@H](CC(=O)O)NC1=O)NC(=O)[C@H](Cc1ccccc1)NC(=O)[C@H](CC(=O)O)NC2=O (stereo partly drawn) [I-1144, Ac-PL3-Asp-Phe-B5-Asp-Asp-Ala-Ala-Phe-Ser-PyrS2-2C1F-BztA-Leu-NH2]
19 | 10 (≈ 19.8 µg/mL) | – | 19 | CC(C)C[C@@H]1NC(=O)[C@H](Cc2ccccc2)NC(=O)[C@H](C)NC(=O)[C@H](C)NC(=O)[C@H](CC(=O)O)NC(=O)[C@H](CC(=O)O)NC(=O)C2(CCCC=CCCCOC(=O)N3CC[C@@](C(=O)N[C@@H](Cc4ccccc4)C(=O)N[C@@H](Cc4csc5ccccc45)C(=O)N[C@@H](CCC(N)=O)C(N)=O)(C3)NC1=O)CCCC=CC[C@]1(CCCN1C(=O)CCCN(C)C)C(=O)N[C@@H](CC(=O)O)C(=O)N[C@@H](CC(C)(C)C)C(=O)N2 (stereo partly drawn) [I-1358, NdiMeButC-PL3-Asp-Npg-B5-Asp-Asp-Ala-Ala-Phe-Leu-PyrS2-Phe-BztA-Gln-NH2]
